The structures appear in SMILES notation.

In one test the test system is hepatitis C replicon. Description: hepatitis C replicon EC50 assay. In kind it is cell-based. The following applies: Hepatitis C virus; hepatitis C replicon; read-out: EC50. An excerpt:
(§1) NS3-NS4 inhibition activity can be determined using known assay methods. For example, NS3/NS4 complexes may be formed and inhibitory concentrations of test compounds determined as described in U.S. Patent Application Publication Number 2007/0054842 paragraph numbers 1497-1509, which is incorporated herein by reference in its entirety. Similarly, hepatitis C replicon EC50 may be determined using known assay methods such as described in U.S. Patent Application Publication Number 2007/0054842 paragraph numbers 1510-1515, which is incorporated herein by reference in its entirety. Assays may be conducted at ambient temperature (23° C.) in assay buffer containing 50 mM Tris-HCl, pH 7.5, 15% glycerol, 0.6 mM Lauryldimethylamine Oxide (LDAO), 25 μM NS4A peptide, and 10 mM Dithiothreitol (DTT).
In general terms: Replicon systems follow genome replication, usually without infectious particles.

The target in another test is NS3/NS4 complexes (Hepatitis C virus genotype 1a, UniProt P27958). Description: NS3/NS4 inhibition assay (IC50). In kind it is biochemical. Conditions: NS3/NS4 activity; 23° C., 25 μM NS4A peptide.
Source text: as §1

NS3/NS4 complexes, sequence (P27958 1027-1657, one chain of several): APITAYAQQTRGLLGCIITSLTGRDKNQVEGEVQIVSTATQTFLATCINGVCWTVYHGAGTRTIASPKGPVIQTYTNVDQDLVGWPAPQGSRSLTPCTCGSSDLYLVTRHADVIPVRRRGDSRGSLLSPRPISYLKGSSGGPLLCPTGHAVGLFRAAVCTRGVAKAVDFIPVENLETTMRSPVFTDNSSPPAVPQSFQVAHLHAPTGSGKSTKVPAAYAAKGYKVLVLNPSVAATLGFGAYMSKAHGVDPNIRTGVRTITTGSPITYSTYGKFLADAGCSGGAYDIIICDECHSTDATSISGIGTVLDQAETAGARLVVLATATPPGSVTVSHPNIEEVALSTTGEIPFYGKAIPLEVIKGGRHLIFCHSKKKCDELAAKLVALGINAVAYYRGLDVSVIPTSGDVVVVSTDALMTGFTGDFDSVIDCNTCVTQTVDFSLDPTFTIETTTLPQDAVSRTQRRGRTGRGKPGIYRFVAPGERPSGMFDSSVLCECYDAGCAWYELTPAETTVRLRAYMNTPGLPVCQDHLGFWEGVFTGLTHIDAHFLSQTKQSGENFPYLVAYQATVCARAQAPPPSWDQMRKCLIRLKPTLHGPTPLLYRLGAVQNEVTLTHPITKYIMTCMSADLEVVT

Take `COc1ccc2c(O[C@@H]3C[C@H]4C(=O)N[C@]5(C(=O)NS(=O)(=O)C6(C)CC6)C[C@H]5/C=C\CCCCC[C@H](Nc5cccc(NC(=O)N6CCOCC6)c5)C(=O)N4C3)cc(-c3nc(C(C)C)cs3)nc2c1C` [Compound 127]: the EC50 (as a rule, the concentration that produces a half-maximal response) in the test on hepatitis C replicon was less than 10 nM. Further, the IC50 (in general, the midpoint of a concentration-inhibition curve) at NS3/NS4 complexes was less than 10 nM.
In the case of `COc1ccc2c(O[C@@H]3C[C@H]4C(=O)N[C@]5(C(=O)NS(=O)(=O)C6(C)CC6)C[C@H]5/C=C\CCCCC[C@H](Nc5cccc(-c6ncco6)c5)C(=O)N4C3)cc(-c3nc(C(C)C)cs3)nc2c1C` [Compound 128], in the test with hepatitis C replicon, the EC50 is less than 10 nM. This compound also yielded an IC50 against NS3/NS4 complexes of less than 10 nM.
As to `COc1ccc2c(O[C@@H]3C[C@H]4C(=O)N[C@]5(C(=O)NS(=O)(=O)C6(C)CC6)C[C@H]5/C=C\CCCCC[C@H](Nc5cccc(C(C)(C)C)c5)C(=O)N4C3)cc(-c3nc(C(C)C)cs3)nc2c1C` [Compound 129], the EC50 in the test on hepatitis C replicon fell in the range of 10 to 100 nM. Further, the IC50 against NS3/NS4 complexes is less than 10 nM.
For `CC(C)n1c(O[C@@H]2C[C@H]3C(=O)N[C@]4(C(=O)NS(=O)(=O)C5(C)CC5)C[C@H]4/C=C\CCCCC[C@H](Nc4cccc(C(C)(C)C)c4)C(=O)N3C2)nc2ccccc21` [Compound 200], in the test with hepatitis C replicon, the EC50 is less than 10 nM. Besides, the IC50 against NS3/NS4 complexes is less than 10 nM.
As for `CC(C)c1cccc2c1nc(O[C@@H]1C[C@H]3C(=O)N[C@]4(C(=O)NS(=O)(=O)C5(C)CC5)C[C@H]4/C=C\CCCCC[C@H](Nc4ccccc4)C(=O)N3C1)n2C(C)C` [Compound 201], the EC50 in the test with hepatitis C replicon lay in the range of 10 to 100 nM. At NS3/NS4 complexes, this compound had an IC50 of less than 10 nM.
Regarding `CC(C)c1ccc2c(c1)nc(O[C@@H]1C[C@H]3C(=O)N[C@]4(C(=O)NS(=O)(=O)C5(C)CC5)C[C@H]4/C=C\CCCCC[C@H](Nc4ccccc4)C(=O)N3C1)n2C(C)C` [Compound 202], the EC50 with hepatitis C replicon is more than 100 nM. The compound further returned an IC50 on NS3/NS4 complexes of less than 10 nM.
Consider `CC(C)n1c(O[C@@H]2C[C@H]3C(=O)N[C@]4(C(=O)NS(=O)(=O)C5(C)CC5)C[C@H]4/C=C\CCCCC[C@H](Nc4ccccc4)C(=O)N3C2)nc2c(-c3ccccc3)cccc21` [Compound 203], for which the EC50 in the test with hepatitis C replicon was 10 to 100 nM. The IC50 on NS3/NS4 complexes was less than 10 nM.
As for `CC(C)n1c(O[C@@H]2C[C@H]3C(=O)N[C@]4(C(=O)NS(=O)(=O)C5(C)CC5)C[C@H]4/C=C\CCCCC[C@H](Nc4ccccc4)C(=O)N3C2)nc2c(C(F)(F)F)cccc21` [Compound 204], the EC50 in the test on hepatitis C replicon is 10 to 100 nM. Besides, the IC50 at NS3/NS4 complexes is less than 10 nM.
Take `CN(C)S(=O)(=O)NC(=O)[C@@]12C[C@H]1/C=C\CCCCC[C@H](NC(=O)OC(C)(C)C)C(=O)N1C[C@H](Oc3nc4ccccc4n3C3CC3)C[C@H]1C(=O)N2` [Compound 205]: the EC50 in the test on hepatitis C replicon was less than 10 nM. The compound further returned an IC50 on NS3/NS4 complexes of less than 10 nM.
As to `CN(C)S(=O)(=O)NC(=O)[C@@]12C[C@H]1/C=C\CCCCC[C@H](NC(=O)OC(C)(C)C)C(=O)N1C[C@H](Oc3nc4ccccc4n3C(C)(C)C)C[C@H]1C(=O)N2` [Compound 206], the EC50 in the test on hepatitis C replicon is less than 10 nM. This compound displayed an IC50 at NS3/NS4 complexes of less than 10 nM.
For `CN(C)S(=O)(=O)NC(=O)[C@@]12C[C@H]1/C=C\CCCCC[C@H](NC(=O)OC(C)(C)C)C(=O)N1C[C@H](Oc3nc4ccccc4n3-c3ccccc3)C[C@H]1C(=O)N2` [Compound 207], in the test with hepatitis C replicon, the EC50 is less than 10 nM. The IC50 against NS3/NS4 complexes was less than 10 nM.
In the case of `CC(C)n1c(O[C@@H]2C[C@H]3C(=O)N[C@]4(C(=O)O)C[C@H]4/C=C\CCCCC[C@H](NC(=O)OC(C)(C)C)C(=O)N3C2)nc2ccccc21` [Compound 208], the EC50 in the test with hepatitis C replicon was more than 100 nM. This compound registered an IC50 at NS3/NS4 complexes of less than 10 nM.
On the same counts, the results for `CC(C)n1c(O[C@@H]2C[C@H]3C(=O)N[C@]4(C(=O)NS(=O)(=O)N(C)C)C[C@H]4/C=C\CCCCC[C@H](NC(=O)OC(C)(C)C)C(=O)N3C2)nc2cnccc21` [Compound 209] are 10 to 100 nM and less than 10 nM.
Turning to `CC(C)n1c(O[C@@H]2C[C@H]3C(=O)N[C@]4(C(=O)NS(=O)(=O)N(C)C)C[C@H]4/C=C\CCCCC[C@H](NC(=O)OC(C)(C)C)C(=O)N3C2)nc2c(-c3ccccc3)cccc21` [Compound 210], the EC50 with hepatitis C replicon is less than 10 nM. The same compound registered an IC50 against NS3/NS4 complexes of less than 10 nM.

The values are drawn from patent US20110081315A1, “NOVEL MACROCYCLIC INHIBITORS OF HEPATITIS C VIRUS REPLICATION” (INTERMUNE, INC., priority 2009, published 2011).
